Reference: PubChem BioAssay (NCI)
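Test compounds were applied to cells in 96-well plates for 48 hours at 5 doses. Definition used: TGI = concentration required for complete inhibition of growth.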

Tests used:
Experiment in all cases: growth of human tumour cells (NCI), 48 h
[1] = test system: A549 NSCLC
[2] = test system: EKVX NSCLC
[3] = test system: SF-295 CNS
[4] = test system: RXF 393 renal
[5] = test system: OVCAR-4 ovarian
[6] = test system: HS 578T breast
[7] = test system: CAKI-1 renal
[8] = test system: MDA-MB-435
[9] = test system: SK-MEL-2 melanoma
[10] = test system: PC-3 prostate

SMILES | TGI [1] | TGI [2] | TGI [3] | TGI [4] | TGI [5] | TGI [6] | TGI [7] | TGI [8] | TGI [9] | TGI [10]
CC(C)(Oc1ccc(Cl)cc1)C(=O)N(C(=O)N1CCC(c2ccccc2)CC1)c1ccccc1 | > 100 µM | > 100 µM | > 100 µM | > 100 µM | > 100 µM | > 100 µM | > 100 µM | > 100 µM | > 100 µM | > 100 µM
CC1CC/C(=C\c2ccc(Cl)cc2)C2OC(N)=C(C#N)C(c3ccc(Cl)cc3)=C12 (centres undefined) |  | 22.7 µM |  | 71.8 µM |  | 49.1 µM | 31.2 µM | 44.2 µM | 27.2 µM | 28.4 µM
O=C(Cn1c(C(=O)/C=C/c2cccs2)nc2ccccc21)c1ccc(Cl)cc1 | > 100 µM |  |  | > 100 µM | 76.9 µM | 38.7 µM |  | > 100 µM | 20.8 µM | 
COc1ccc(C(SC2C(O)C(CO)OC2n2ccc(N)nc2=O)(c2ccccc2)c2ccc(OC)cc2)cc1 (centres undefined) | 54.2 µM | 50.4 µM | 49.8 µM | 31.5 µM | 78.2 µM | 48.1 µM | > 100 µM | 28.2 µM | 33 µM | 41.1 µM
CC(C)C(OC(=O)c1ccc(NCc2cc(O)ccc2O)cc1)C(C)C | 20.7 µM | 5.32 µM | 15.4 µM | 1.65 µM | 4.33 µM | 8.09 µM | 0.701 µM | 5.59 µM | 6.68 µM | 3.96 µM
CCOC(=O)c1nc2ccc(C(F)(F)F)cc2nc1Oc1cc(OC)cc(OC)c1 | > 100 µM | > 100 µM | > 100 µM | > 100 µM | 95.1 µM | 64.2 µM |  | > 100 µM | > 100 µM | > 100 µM
COc1cc2c(cc1OC)C(Cl)C(c1ccc(Cl)c(Cl)c1)=C2Cl (centres undefined) |  | 44.7 µM | 22 µM |  |  |  | 25.1 µM |  | 21.3 µM | 
CC1(C)CC(=O)c2c(nc3ccc4ccccc4c3c2-c2ccc(NC(=O)CCCCCCCCC(=O)Nc3ccc(-c4c5c(nc6ccc7ccccc7c46)CC(C)(C)CC5=O)cc3)cc2)C1 | > 100 µM | > 100 µM | > 100 µM |  |  | > 100 µM | > 100 µM | > 100 µM | > 100 µM | > 100 µM
COc1cc(C2c3cc4c(cc3OC(NNC(N)=O)C2C)OCO4)cc(OC)c1O (centres undefined) | > 80.9 µM | > 100 µM | > 85.7 µM | > 20.9 µM | > 100 µM | > 100 µM | > 100 µM |  | > 74.4 µM | > 100 µM
CCOC(=O)Cc1cc(OC)c(OC)cc1/C(Cl)=C(\C=O)c1ccc(OC)c(OC)c1 | 57.1 µM | 71.7 µM | 29 µM | > 100 µM | 56.3 µM |  | 75.5 µM |  | 62.9 µM | 
c1ccc2c(c1)CCc1c-2n(CCN2CCOCC2)c2ccccc12 | > 100 µM | > 100 µM | > 100 µM |  | > 100 µM | > 100 µM | > 100 µM | > 100 µM | 25.8 µM | > 100 µM
c1cn(C23C4C5C6C4C2C6C53)cn1 (centres undefined) | > 100 µM | > 100 µM | > 100 µM |  |  | > 100 µM |  | > 100 µM | > 100 µM | > 100 µM
C[C@H]1C[C@H]2[C@@H]3C(C)(C)O[C@]4(O)C(=O)[C@]5(O)[C@@H](C)CC[C@H]1[C@]25C(=O)[C@]34C | > 100 µM |  | 77.5 µM |  |  | > 100 µM | > 100 µM | 96.3 µM | 84.3 µM | > 100 µM
Nc1ncnc2c1nnn2C1CCC(CP(=O)(O)O)C1 (centres undefined) | > 100 µM | > 100 µM | > 100 µM | > 100 µM | > 100 µM |  | > 100 µM | > 100 µM | > 100 µM | > 100 µM
COc1cc2cc[n+]3c(C)c4cc(OC)c(OC)cc4c([O-])c3c2cc1OC | > 100 µM | > 100 µM | > 100 µM | 89.9 µM | > 100 µM |  | > 100 µM |  | > 100 µM | 
NNC(=O)Cn1c2ccc(Br)cc2c2nc3ccccc3nc21 | > 100 µM | > 100 µM | > 100 µM | > 100 µM |  |  | > 100 µM | > 100 µM | > 100 µM | > 100 µM
C(CCCCc1nnc(N2CCCCC2)o1)CCCc1nnc(N2CCCCC2)o1 | > 100 µM | > 100 µM | > 100 µM | > 100 µM | > 100 µM |  | > 100 µM | > 100 µM | > 100 µM | > 100 µM
C/C(Nc1ccc(F)cc1)=C1/CCOC1=O | > 100 µM | > 100 µM | > 100 µM | > 100 µM | > 100 µM | > 100 µM |  | > 100 µM |  | > 100 µM
